From PubChem BioAssay AID2044 (Broad Institute, 2009)
Results filed as inconclusive are left out.

Test system: T. cruzi beta-gal in NIH3T3, GalScreen luminescence, 90 h
Test: inhibitors of intracellular T. cruzi replication, confirmation, NIH3T3 host cells, beta-gal luminescence (AID 2044)

## C#CCOCCOCCOCCNc1nc(N2CCN(C(=O)CCCCCCCCCCNC(=O)Cn3cc(C[C@@H](C)O)nn3)CC2)nc(N2CCN(C(=O)CCCCCCCCCCNC(=O)[C@H](CCCN=C(N)N)n3cc(C[C@@H](C)CC)nn3)CC2)n1
  EC50: 967 nM
